# Where two headings read alike, the source gives them in different places.
# Legend:
# [1] = test system: antisera from rabbit 19; test: Competitive/inhibition ELISA, antisera pre-incubated with unconjugated OP, 1 μg/ml OP-Ova; type: binding; conditions: 1 hour at 25° C.
# Method: (§1) An ELISA was used to screen the antisera for polyclonal antibodies to the generic hapten/conjugate of the invention using the following protocol. Microtitre plates (Costar) were coated with the appropriate hapten conjugate with ovalbumin by diluting that in 0.05M sodium hydrogen carbonate/sodium carbonate buffer (pH 9.6) to give an optimum protein concentration of 1 μg/ml previously determined by chequerboard titration; protein found by Bradford assay. 100 μl was added to each microtitre plate well and the plates placed in a moist chamber overnight, washed 3 times with 0.15 phosphate buffered saline pH7.2 with 0.05% Tween 20[RTM]: PBST), and blotted dry. Blocking was carried out by adding 250 μl per well of 5% skimmed milk for 1 hour at 25° C.
# (§2) After two further washings the coated microplates were stored at -20° C. until required, whereon they were washed once with PBST. Antisera were diluted (1/1000 for general screening or doubling dilutions up to 1/512,000 for titration assays) in PSBT, applied to microtitre wells in triplicate in 50 μl amounts and incubated in a moist chamber at 25° C. for 1 hour (appropriate positive and negative controls were included--PBST, negative rabbit serum and positive serum when it had been produced). Wells were then washed 3 times in PBST and 200 μl of a 1:1500 dilution of swine anti-rabbit immunoglobulin conjugated to horseradish peroxidase (DAKO) was added to each well. Plates were incubated once more for 1 hour at 25° C. then washed 3 times with PBST.
# (§3) Tetramethylbenzidine (TMB) enzyme substrate solution was prepared by adding 400 μl of 6.0 g/l TMB in DMSO to 24.5 ml of 0.1M sodium acetate buffer pH5.5 with 100 μl of 1% H2 O2 and 100 μl added to the wells. The microplates were incubated for 15 minutes in the dark at 25° C. before the reaction was stopped by adding 50 μl of 2.5M H2 SO4 and the absorbance read at 450 nm against air. Results: are given below with those of Example 6.
# (§4) This assay was carried out in the same manner as that of Example 5 with the following modifications. After plate coating the various dilutions of antisera were incubated with various concentrations of analyte solution for 1 to 2 hours at 25° C. or overnight at 4° C. Antiserum dilutions tested were 1/1000, 1/2000, 1/5000 and 1/10000 and the concentrations of the analyte ranged from 200 to 0.001 μg/ml. Coating of generic hapten-ovalbumin was at 1 μg/ml and later other coating strengths were tested ranging from 400 to 12.5 ng/ml. Note: cross reactivity in all cases was checked by carrying out an indirect ELISA where plates were coated with the blocking agents or BSA or ovalbumin at 1 μg/ml. Skimmed milk, foetal calf serum (both 5%), caesin (0.3%) or fish skin gelatin (0.5%) were selected as the blocking agent in this regard. Use of competitive assay is preferred for determining cross-reactivity.
# (§5) 400 to 0.012 μg/ml conjugate for 200 to 0.001 μg/ml analyte detection.
# [2] = test system: antisera from rabbit 20; test: as above; type: binding; conditions: 1 hour at 25° C.
# Method: as §1, §2, §3, §4, §5
# [3] = test system: antisera from rabbit 21; test: as above; type: binding; conditions: 1 hour at 25° C.
# Method: as §1, §2, §3, §4, §5
# [4] = test system: Rabbit 20 antisera; test: Competitive/inhibition ELISA, antisera preincubated with OP for 2 hours, plate coated with 400 μg/ml OP-Ova; type: binding; conditions: 2 hours at 25° C.
# Method: as §1, §2, §3, §4, §5
# [5] = test system: antisera from rabbit 19; type: binding; set-up: key: +++: strong; ++: medium; +: weak reaction; poor: slight; -: none; conditions: antisera 1:2000, 2 hours at 25° C.
# Method: as §1, §2, §3
# (§6) Assay was carried out in the same manner as Example 5 with the following modifications. Antisera was diluted 1:2000 with 1% BSA in PBST and 100 μl was incubated for 2 hours at 25° C. with 100 μl of each concentration of the unconjugated OP--in this case the generic part--in a microtitration plate. Concentrations of OP ranged from 200 to 0.001 μg ml^-1.
# (§7) Cross reactivity of antisera from rabbits 19, 20 and 21 by inhibition ELISA with the various organophosphorus pesticides is shown in Table 5 in which concentration (μg ml^-1) for 50% inhibition to occur is given together with the diluent in which this is achieved--PBST or % methanol in PBST for figures.
# [6] = test system: antisera from rabbit 21; type: binding; set-up: key: +++: strong; ++: medium; +: weak reaction; poor: slight; -: none; conditions: antisera 1:2000, 2 hours at 25° C.
# Method: as §1, §2, §3, §6, §7
# [7] = test system: antisera from rabbit 20; type: binding; set-up: key to cross reactivity by inhibition ELISA, Rabbit 20: +++: strong; ++: medium; +: weak reaction; poor: slight; -: none; conditions: for cross reactivity by inhibition ELISA, Rabbit 20: antisera 1:2000, 2 hours at 25° C.; for concentration for 50% inhibition: Rabbit 20
# Method: as §1, §2, §3, §6, §7
# [8] = test system: generic antibodies; test: Relative inhibition of binding of generic antibodies to hapten conjugate; set-up: species or system rabbit; conditions: inhibition at 100 μg/ml minus inhibition at 0.1 μg/ml organophosphate
# Method: as §6
smiles,measurement,setting,value
COP(=S)(OC)OCCCCO [OP],absorbance after pre-incubation with OP,[1]; OP 0.01 μg/ml,1.83
same,absorbance after pre-incubation with OP,[1]; OP 0.1 μg/ml,1.73
same,absorbance after pre-incubation with OP,[1]; OP 0.4 μg/ml,1.66
same,absorbance after pre-incubation with OP,[1]; OP 3.1 μg/ml,1.50
same,absorbance after pre-incubation with OP,[1]; OP 12.5 μg/ml,1.36
same,absorbance after pre-incubation with OP,[1]; OP 50.0 μg/ml,1.34
same,absorbance after pre-incubation with OP,[2]; OP 0.01 μg/ml,1.95
same,absorbance after pre-incubation with OP,[2]; OP 0.1 μg/ml,1.95
same,absorbance after pre-incubation with OP,[2]; OP 0.4 μg/ml,1.81
same,absorbance after pre-incubation with OP,[2]; OP 3.1 μg/ml,1.54
same,absorbance after pre-incubation with OP,[2]; OP 12.5 μg/ml,1.31
same,absorbance after pre-incubation with OP,[2]; OP 50.0 μg/ml,1.19
same,absorbance after pre-incubation with OP,[3]; OP 0.01 μg/ml,1.52
same,absorbance after pre-incubation with OP,[3]; OP 0.1 μg/ml,1.42
same,absorbance after pre-incubation with OP,[3]; OP 0.4 μg/ml,1.45
same,absorbance after pre-incubation with OP,[3]; OP 3.1 μg/ml,1.34
same,absorbance after pre-incubation with OP,[3]; OP 12.5 μg/ml,1.02
same,absorbance after pre-incubation with OP,[3]; OP 50.0 μg/ml,1.24
same,absorbance after preincubation with OP,"[4]; antisera 1/1000, OP conc 0.001",1.38
same,absorbance after preincubation with OP,"[4]; antisera 1/1000, OP conc 0.01",1.58
same,absorbance after preincubation with OP,"[4]; antisera 1/1000, OP conc 0.1",1.48
same,absorbance after preincubation with OP,"[4]; antisera 1/1000, OP conc 1.0",1.24
same,absorbance after preincubation with OP,"[4]; antisera 1/1000, OP conc 10.0",0.94
same,absorbance after preincubation with OP,"[4]; antisera 1/1000, OP conc 20.0",0.87
same,absorbance after preincubation with OP,"[4]; antisera 1/1000, OP conc 100.0",0.82
same,absorbance after preincubation with OP,"[4]; antisera 1/1000, OP conc 200.0",0.89
same,absorbance after preincubation with OP,"[4]; antisera 1/2000, OP conc 0.001",1.10
same,absorbance after preincubation with OP,"[4]; antisera 1/2000, OP conc 0.01",1.11
same,absorbance after preincubation with OP,"[4]; antisera 1/2000, OP conc 0.1",1.04
same,absorbance after preincubation with OP,"[4]; antisera 1/2000, OP conc 1.0",0.87
same,absorbance after preincubation with OP,"[4]; antisera 1/2000, OP conc 10.0",0.74
same,absorbance after preincubation with OP,"[4]; antisera 1/2000, OP conc 20.0",0.67
same,absorbance after preincubation with OP,"[4]; antisera 1/2000, OP conc 100.0",0.67
same,absorbance after preincubation with OP,"[4]; antisera 1/2000, OP conc 200.0",0.69
"CCN(CC)c1nc(C)cc(OP(=S)(OC)OC)n1 [Pirimiphos-methyl, pirimiphos-methyl]","cross reactivity by inhibition ELISA, Rabbit 19",[5],-
same,"cross reactivity by inhibition ELISA, Rabbit 21",[6],-
same,"cross reactivity by inhibition ELISA, Rabbit 20",[7],poor
same,Relative inhibition of binding of generic antibodies to hapten conjugate as % of hapten + spacer inhibition,[8],21.1%
"COP(=S)(OC)OCCCCO [Hapten + spacer, (CH3 O)2 P(S)--O--(CH2)4 --OH]","cross reactivity by inhibition ELISA, Rabbit 19",[5],+++
same,"cross reactivity by inhibition ELISA, Rabbit 21",[6],+++
same,concentration for 50% inhibition,[7]; diluent PBST,3.0 µg/mL
same,"cross reactivity by inhibition ELISA, Rabbit 20",[7],+++
same,Relative inhibition of binding of generic antibodies to hapten conjugate as % of hapten + spacer inhibition,[8],100.0%
"CCNP(=S)(OC)O/C(C)=C/C(=O)OC(C)C (stereo not drawn) [Propetamphos, propetamphos]","cross reactivity by inhibition ELISA, Rabbit 19",[5],+
same,"cross reactivity by inhibition ELISA, Rabbit 21",[6],++
same,concentration for 50% inhibition,[7]; diluent 10% methanol in PBST,36.2 µg/mL
same,"cross reactivity by inhibition ELISA, Rabbit 20",[7],+++
same,Relative inhibition of binding of generic antibodies to hapten conjugate as % of hapten + spacer inhibition,[8],75.9%
COP(=S)(OC)Oc1nc(Cl)c(Cl)cc1Cl [Chlorpyrifos-methyl],"cross reactivity by inhibition ELISA, Rabbit 19",[5],poor
same,"cross reactivity by inhibition ELISA, Rabbit 21",[6],poor
same,"cross reactivity by inhibition ELISA, Rabbit 20",[7],poor
same,Relative inhibition of binding of generic antibodies to hapten conjugate as % of hapten + spacer inhibition,[8],29.2%
"OCCCCO [Spacer, 1,4 butanediol]","cross reactivity by inhibition ELISA, Rabbit 19",[5],-
same,"cross reactivity by inhibition ELISA, Rabbit 21",[6],-
same,"cross reactivity by inhibition ELISA, Rabbit 20",[7],-
"COP(=S)(OC)Oc1ccc([N+](=O)[O-])c(C)c1 [Fenitrothion, fenitrothion]","cross reactivity by inhibition ELISA, Rabbit 19",[5],+
same,"cross reactivity by inhibition ELISA, Rabbit 21",[6],+
same,concentration for 50% inhibition,[7]; diluent 10% methanol in PBST,4.8 µg/mL
same,"cross reactivity by inhibition ELISA, Rabbit 20",[7],+++
same,Relative inhibition of binding of generic antibodies to hapten conjugate as % of hapten + spacer inhibition,[8],90.1%
